Source: US20230218710A1, “METHOD OF TREATING CORONAVIRUS INFECTIONS” (priority 2020, published 2023)
Square brackets hold non-standard residues; d marks the D form. Peptide text beside a SMILES is read from it. * marks the point of attachment. CH3O(CH2CH2O)11CH2CH2CO = COCCOCCOCCOCCOCCOCCOCCOCCOCCOCCOCCOCCC(=O)*

Experiments:
[1] = biological target: human APJ (Homo sapiens, UniProt P35414); experiment: cell-based; conditions: CHO-K1, 1.5 h, read-out: Percent of Apelin-13 Control Activity
Description: The effect of the peptides on activation of Apelin Receptor (APJ) can be assessed using an assay to monitor β-Arrestin recruitment in cultured cells overexpressing APJ such as CHO-K1, derived from Chinese hamster ovary. β-Arrestin recruitment assays were performed by Eurofins-DiscoverX (Fremont, Calif.) using CHO-K1 AGTRL1 β-Arrestin cell line (co-expressing ProLink tagged human APJ and Enzyme Acceptor tagged β-Arrestin) and PathHunter detection kit. Peptides were initially prepared either as 10 mM stock in DMSO and used at a final concentration of 10 μM (0.1% DMSO). CHO-K1 AGTRL1 β-Arrestin cells were seed onto 384-well plates in standard medium. […] Following 90 min. incubation at 37° C., β-Arrestin recruitment in response to various treatments was quantified using a chemiluminescent complementation reporter assay to measure association of tagged human APJ (ProLink tag) and tagged β-Arrestin (Enzyme Acceptor tag).

[2] = in vitro; conditions: human, pooled human plasma
Description: The metabolic stability of the peptides can be assessed in vitro by incubation in plasma and determination of the amount of peptide remaining over time. Peptides (50 μM) were incubated in pooled plasma from mice, monkeys, and humans at 37° C. Samples were removed at intervals up to 3 hours and immediately analyzed for the concentration of intact peptide by LC/MS/MS. The percent of peptide remaining in plasma at each time point was calculated relative to the initial peak area.

[3] = biological target: T1, Apelin Receptor (APJ) (Homo sapiens, UniProt P35414); experiment: cell-based; conditions: CHO-K1, 0.5 h, read-out: Percent of Pyr-Apelin-13 Control Activity
T1 construct: host or cells: CHO-K1 AGTRL1 Gi cells
T1 sequence (P35414 1-380): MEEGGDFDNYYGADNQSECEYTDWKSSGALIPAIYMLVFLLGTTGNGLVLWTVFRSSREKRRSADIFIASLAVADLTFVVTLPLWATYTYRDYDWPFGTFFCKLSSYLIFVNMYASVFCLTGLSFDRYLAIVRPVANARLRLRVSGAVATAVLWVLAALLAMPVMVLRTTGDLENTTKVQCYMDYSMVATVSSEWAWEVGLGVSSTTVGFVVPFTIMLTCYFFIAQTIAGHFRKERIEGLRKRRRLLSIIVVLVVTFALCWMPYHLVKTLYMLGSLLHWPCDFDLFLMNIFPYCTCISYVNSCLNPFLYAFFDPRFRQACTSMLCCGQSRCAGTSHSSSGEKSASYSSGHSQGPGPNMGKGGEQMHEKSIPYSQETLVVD
Description: Peptides were initially prepared as 30 mM stock in DMSO and diluted to 3 mM in H2O or directly as 3 mM stock in H2O; used at a final concentration of 10 μM (0-0.1% DMSO).

[4] = biological target: T1, Apelin Receptor (APJ); experiment: Phosphorylation of ERK1/2 in cultured cells overexpressing APJ; type: cell-based; conditions: 5 min, 100 nM Pyr-Apelin-13 = positive control, acetate salts
Description: The effect of the peptides of the current invention on activation of Apelin Receptor (APJ)-mediated signaling can be assessed using an assay to monitor phospho-ERK/phospho-p44/42 MAPK (p-ERK1/2) levels in cultured cells overexpressing Apelin Receptor (APJ) such as CHO-K1, derived from Chinese hamster ovary. Peptides were initially prepared as 100× stocks in H2O. […] Following a 5 min incubation the supernatant was removed and the cells were placed on ice and washed twice with cold HBSS. The HBSS was removed and the cells were immediately lysed in 300 μl/well of 1× lysis buffer (CST 10× Lysis Buffer; Cell Signaling Technology; Danvers, Mass.); lysis buffer was supplemented with 1 mM PMSF (Millipore-Sigma; Saint Louis, Mo.) and Halt Protease/Phosphatase Inhibitor Cocktail (Thermo-Fisher; Waltham, Mass.) prior to use. The samples were then placed on ice for 10 min, wells were scraped and lysates transferred to microfuge tubes. The samples were centrifuged at 12,500 rpm for 10 min at 4° C. and p-ERK1/2 expression in each sample was measured using Phospho-p44/42 MAPK (Thr202/Tyr204) Sandwich ELISA kit according to manufacturer's instructions (Cell Signaling Technology; Danvers, Mass.). Absorbance was measured using a Cytation 3 plate reader at […] (BioTek; Winooski, Vt.). […] Each data point represents the average of duplicate assays.

[5] = biological target: T1, Apelin Receptor (APJ); experiment: Phosphorylation of MEK1 in cultured cells overexpressing APJ; type: cell-based; conditions: 5 min, 100 nM Pyr-Apelin-13 = positive control, acetate salts
Description: Peptides were initially prepared as 100× stocks in H2O. […] Following a 5 min incubation, the supernatant was removed and the cells were placed on ice and washed twice with cold HBSS. The HBSS was removed and the cells were immediately lysed in 300 μl/well of 1× lysis buffer (CST 10× Lysis Buffer; Cell Signaling Technology; Danvers, Mass.); lysis buffer was supplemented with 1 mM PMSF (Millipore-Sigma; Saint Louis, Mo.) and Halt Protease/Phosphatase Inhibitor Cocktail (Thermo-Fisher; Waltham, Mass.) prior to use. The samples were then placed on ice for 10 min, the wells were scraped and lysates were centrifuged at 12,500 rpm for 10 min at 4° C., and p-MEK expression in each sample was measured using Phospho-MEK1 (Ser217/221) Sandwich ELISA kit according to manufacturer's instructions (Cell Signaling Technology; Danvers, Mass.). Absorbance was measured using a Cytation 3 plate reader at […] (BioTek; Winooski, Vt.). […] Each data point represents the average of duplicate assays.

Chain of human APJ (P32121 whole entry partner, one chain of several): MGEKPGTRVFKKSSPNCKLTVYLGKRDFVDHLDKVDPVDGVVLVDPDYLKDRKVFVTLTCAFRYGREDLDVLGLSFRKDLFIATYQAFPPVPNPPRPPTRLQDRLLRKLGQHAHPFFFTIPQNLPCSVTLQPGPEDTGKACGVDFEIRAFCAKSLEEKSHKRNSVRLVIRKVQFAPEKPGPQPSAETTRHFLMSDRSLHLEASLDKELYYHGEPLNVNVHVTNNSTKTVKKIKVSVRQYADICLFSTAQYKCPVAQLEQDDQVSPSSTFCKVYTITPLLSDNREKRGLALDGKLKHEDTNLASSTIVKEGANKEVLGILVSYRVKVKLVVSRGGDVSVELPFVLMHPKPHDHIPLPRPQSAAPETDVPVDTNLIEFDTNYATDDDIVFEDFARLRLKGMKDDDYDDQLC

| SMILES | Emax at 10 µM [1] [%] | remaining at 0.5 h, 50 μM [2] [%] | Emax at 10 µM [3] [%] | further results |
| --- | --- | --- | --- | --- |
| CSCC[C@H](NC(=O)[C@H](CCCNC(=N)N)NC(=O)[C@@H](N)CCCNC(=N)N)C(=O)N[C@@H](CCC(=O)O)C(=O)N[C@H](C(=O)N[C@@H](Cc1ccc(O)cc1)C(=O)N[C@@H](CCC(N)=O)C(=O)N[C@@H](CS)C(=O)N[C@@H](CC(C)C)C(=O)N[C@@H](CS)C(=O)NCC(=O)N[C@H](C)C(=O)O)C(C)C [compound 31] (H-RRMEVYQCLCG[dA]-OH; N-terminus and C-terminus assumed) | 0 | 100 | 2 |  |
| CC[C@H](C)[C@H](NC(=O)CNC(=O)[C@@H](NC(=O)[C@@H](NC(=O)[C@H](CCCNC(=N)N)NC(=O)[C@H](CCCNC(=N)N)NC(=O)[C@H](CCCCN)NC(=O)CCOCCOCCOCCOCCOCCOCCOCCOCCOCCOCCOCCOC)[C@@H](C)CC)[C@@H](C)CC)C(=O)N[C@H](C(=O)N[C@@H](Cc1ccccc1)C(=O)N[C@@H](CCC(N)=O)C(=O)N[C@@H](CS)C(=O)N[C@@H](CC(C)C)C(=O)N[C@@H](CS)C(=O)NCC(=O)N[C@H](C)C(=O)O)C(C)C [compound 42] ({CH3O(CH2CH2O)11CH2CH2CO}-KRRIIGIVFQCLCG[dA]-OH; N-terminus and C-terminus assumed) | 8 |  | 33 |  |
| COCCOCCOCCOCCOCCOCCOCCOCCOCCOCCOCCOCCC(=O)N[C@@H](CCCCN)C(=O)N[C@@H](CCCNC(=N)N)C(=O)N[C@@H](CCCNC(=N)N)C(=O)N[C@@H](CCSC)C(=O)N[C@@H](CCSC)C(=O)NCC(=O)N[C@@H](CCSC)C(=O)N[C@H](C(=O)N[C@@H](Cc1ccccc1)C(=O)N[C@@H](CCC(N)=O)C(=O)N[C@@H](CO)C(=O)N[C@@H](CC(C)C)C(=O)N[C@@H](CS)C(=O)NCC(=O)N[C@H](C)C(=O)O)C(C)C [compound 36] | 63 |  | 101 |  |
| CSCC[C@H](NC(=O)CNC(=O)[C@H](CCSC)NC(=O)[C@H](CCSC)NC(=O)[C@H](CCCNC(=N)N)NC(=O)[C@@H](N)CCCNC(=N)N)C(=O)N[C@H](C(=O)N[C@@H](C)C(=O)N[C@@H](CCC(N)=O)C(=O)N[C@@H](CS)C(=O)N[C@@H](CC(C)C)C(=O)N[C@@H](CS)C(=O)NCC(=O)N[C@H](C)C(=O)O)C(C)C [compound 11] | 0 | 97.9 | 49 |  |
| COCCOCCOCCOCCOCCOCCOCCOCCOCCOCCOCCOCCC(=O)N[C@@H](CCCCN)C(=O)N[C@@H](CCCNC(=N)N)C(=O)N[C@@H](CCCNC(=N)N)C(=O)N[C@@H](CC(C)C)C(=O)N[C@@H](CC(C)C)C(=O)NCC(=O)N[C@@H](CC(C)C)C(=O)N[C@H](C(=O)N[C@@H](Cc1ccccc1)C(=O)N[C@@H](CCC(N)=O)C(=O)N[C@@H](CO)C(=O)N[C@@H](CC(C)C)C(=O)N[C@@H](CS)C(=O)NCC(=O)N[C@H](C)C(=O)O)C(C)C [compound 37] | 12 |  | 53 |  |
| CSCC[C@H](NC(=O)CNC(=O)[C@H](CCSC)NC(=O)[C@H](CCSC)NC(=O)[C@H](CCCNC(=N)N)NC(=O)[C@@H](N)CCCNC(=N)N)C(=O)N[C@H](C(=O)N[C@@H](C)C(=O)N[C@@H](CCC(N)=O)C(=O)N[C@@H](CS)C(=O)N[C@@H](CC(C)C)C(=O)N[C@@H](CCC(=O)O)C(=O)NCC(=O)N[C@H](C)C(=O)O)C(C)C [compound 30] (H-RRMMGMVAQCLEG[dA]-OH; N-terminus and C-terminus assumed) | -1 | 14.9 | 31 |  |
| COCCOCCOCCOCCOCCOCCOCCOCCOCCOCCOCCOCCC(=O)NCCCC[C@H](NC(=O)[C@@H](C)NC(=O)CNC(=O)[C@H](CS)NC(=O)[C@H](CC(C)C)NC(=O)[C@H](CS)NC(=O)[C@H](CCC(N)=O)NC(=O)[C@H](Cc1ccccc1)NC(=O)[C@@H](NC(=O)[C@H](CCSC)NC(=O)CNC(=O)[C@H](CCSC)NC(=O)[C@H](CCSC)NC(=O)[C@H](CCCNC(=N)N)NC(=O)[C@@H](N)CCCNC(=N)N)C(C)C)C(=O)O [compound 21] | 1 | 29.5 | 34 |  |
| COCCOCCOCCOCCOCCOCCOCCOCCOCCOCCOCCOCCC(=O)N[C@@H](CCCCN)C(=O)N[C@@H](CCCNC(=N)N)C(=O)N[C@@H](CCCNC(=N)N)C(=O)N[C@@H](CCSC)C(=O)N[C@@H](CCSC)C(=O)NCC(=O)N[C@@H](CCSC)C(=O)N[C@H](C(=O)N[C@@H](Cc1ccccc1)C(=O)N[C@@H](CCC(N)=O)C(=O)N[C@@H](CS)C(=O)N[C@@H](CC(C)C)C(=O)N[C@@H](CS)C(=O)NCC(=O)N[C@H](C)C(=O)O)C(C)C [compound 20] | 1 | 75.3 | 37 |  |
| CSCC[C@H](NC(=O)CNC(=O)[C@H](CCSC)NC(=O)[C@H](CCSC)NC(=O)[C@H](CCCNC(=N)N)NC(=O)[C@@H](N)CCCNC(=N)N)C(=O)N[C@H](C(=O)N[C@@H](Cc1ccccc1)C(=O)N[C@@H](CCC(N)=O)C(=O)N[C@@H](CO)C(=O)N[C@@H](CC(C)C)C(=O)N[C@@H](CS)C(=O)NCC(=O)N[C@H](C)C(=O)O)C(C)C [compound 15] | 40 | 24.3 | 105 |  |
| CSCC[C@H](NC(=O)CNC(=O)[C@H](CCSC)NC(=O)[C@H](CCSC)NC(=O)[C@H](CCCNC(=N)N)NC(=O)[C@@H](N)CCCNC(=N)N)C(=O)N[C@H](C(=O)N[C@@H](Cc1ccccc1)C(=O)N[C@@H](CCC(N)=O)C(=O)N[C@@H](CO)C(=O)N[C@@H](CC(C)C)C(=O)N[C@@H](CS)C(=O)NCC(=O)N[C@H](C)C(=O)O)C(C)C [SEQ ID NO: 15] |  |  |  | pERK1/2 (% of Positive Control) ([4]; 0.4 μM peptide): 1.9%; pERK1/2 (% of Positive Control) ([4]; 2.0 μM peptide): 15.4%; pERK1/2 (% of Positive Control) ([4]; 10 μM peptide): 44.4%; pERK1/2 (% of Positive Control) ([4]; 50 μM peptide): 69.7%; pMEK1 (% of Positive Control) ([5]; 2.0 μM peptide): 2.5%; pMEK1 (% of Positive Control) ([5]; 10 μM peptide): 14.3%; pMEK1 (% of Positive Control) ([5]; 50 μM peptide): 52.7% |
